Series [1] has as its target T1, Mitogen-activated protein kinase kinase kinase 7 (Homo sapiens) (UniProt O43318).
T1 sequence (whole entry): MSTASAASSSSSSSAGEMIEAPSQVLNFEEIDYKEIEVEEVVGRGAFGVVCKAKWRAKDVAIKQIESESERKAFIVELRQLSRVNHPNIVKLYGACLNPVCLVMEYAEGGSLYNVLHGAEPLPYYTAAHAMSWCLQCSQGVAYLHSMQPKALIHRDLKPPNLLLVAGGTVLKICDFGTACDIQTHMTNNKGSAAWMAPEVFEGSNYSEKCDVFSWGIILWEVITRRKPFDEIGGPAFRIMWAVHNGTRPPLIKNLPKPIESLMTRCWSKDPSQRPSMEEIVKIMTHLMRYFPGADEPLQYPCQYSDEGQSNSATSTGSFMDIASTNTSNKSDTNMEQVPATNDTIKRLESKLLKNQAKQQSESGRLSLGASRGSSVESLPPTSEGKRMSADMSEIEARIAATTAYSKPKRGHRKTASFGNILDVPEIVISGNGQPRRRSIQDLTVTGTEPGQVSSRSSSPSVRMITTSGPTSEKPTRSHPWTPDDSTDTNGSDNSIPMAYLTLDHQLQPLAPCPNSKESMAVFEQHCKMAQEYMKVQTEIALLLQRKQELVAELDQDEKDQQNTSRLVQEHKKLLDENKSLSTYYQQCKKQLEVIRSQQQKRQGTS
Put plainly: Inhibition of TAK1 (unknown origin) at 1 uM by LanthaScreen Eu kinase binding assay relative to control.

In series [2] the target is T1, Mitogen-activated protein kinase kinase kinase 7 (Homo sapiens). Put plainly: Inhibition of TAK1 (unknown origin) at 0.1 uM by LanthaScreen Eu kinase binding assay relative to control. For orientation: TR-FRET usually uses a lanthanide donor and a delayed reading to cut background.
The nature of series [3]: Stability in mouse liver microsomes assessed as parent compound remaining after 60 mins in presence of NADPH by HPLC analysis. As to conditions: read-out: Stability. The series is classed as ADME, Microsome.
Series [4] in a line: Oral bioavailability in ICR mouse at 10 mg/kg administered as single dose by LC-MS/MS analysis. The series is classed as ADME, organism-based. As to conditions: in vivo.
Series [5] can be described thus: Stability in human liver microsomes assessed as parent compound remaining after 60 mins in presence of NADPH by HPLC analysis. The series is classed as ADME, Microsome. As to conditions: read-out: Stability.
Series [6] in a line: AUC (0 to 7 hrs) in ICR mouse at 10 mg/kg, po administered as single dose or 3 mg/kg, iv by LC-MS/MS analysis. The series is classed as ADME, organism-based. As to conditions: in vivo.
For a further series, the target named is TAK1/TAB1 (Homo sapiens, UniProt O43318). The series can be described thus: Inhibition of N-terminal His-tagged human TAK1 (1 to 303 amino acids)/human TAB1 (437 to 504 amino acids) expressed in baculovirus expression system using fluorescence-labeled substrate by off-chip mobility shift assay.
Sequence of TAK1/TAB1 (Q15750 whole entry, one chain of several, the tested form may be a part): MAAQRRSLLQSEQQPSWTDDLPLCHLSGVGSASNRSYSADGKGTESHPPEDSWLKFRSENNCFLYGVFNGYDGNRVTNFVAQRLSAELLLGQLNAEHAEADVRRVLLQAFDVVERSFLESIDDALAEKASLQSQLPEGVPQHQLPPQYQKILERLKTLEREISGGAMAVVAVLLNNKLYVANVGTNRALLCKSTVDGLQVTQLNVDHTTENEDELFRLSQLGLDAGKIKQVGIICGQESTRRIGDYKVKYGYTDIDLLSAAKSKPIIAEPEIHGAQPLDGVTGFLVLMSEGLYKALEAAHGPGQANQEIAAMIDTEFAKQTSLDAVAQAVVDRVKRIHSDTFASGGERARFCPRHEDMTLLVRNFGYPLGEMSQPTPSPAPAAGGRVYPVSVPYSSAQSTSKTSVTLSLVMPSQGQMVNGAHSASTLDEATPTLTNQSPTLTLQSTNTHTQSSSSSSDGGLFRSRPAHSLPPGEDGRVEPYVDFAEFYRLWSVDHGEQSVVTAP
The test system of series [7] is SW-620. Put plainly: Growth inhibition of human SW620 cells after 96 hrs by SRB assay. As to conditions: SW-620, 96 h. It counts as functional, cell-based. On the technique in general: The SRB assay estimates cell density from bound dye.
Series [8] can be described thus: Stability in human plasma assessed as parent compound remaining after 6 hrs by LC-MS/MS analysis. The series is classed as ADME, cell-free. As to conditions: read-out: Stability.
Series [9] is described as follows: Stability in mouse plasma assessed as parent compound remaining after 6 hrs by LC-MS/MS analysis. It counts as ADME, cell-free. As to conditions: read-out: Stability.
Series [10] can be described thus: Half life in ICR mouse at 10 mg/kg, po administered as single dose or 3 mg/kg, iv by LC-MS/MS analysis. The series is classed as ADME, organism-based. As to conditions: in vivo.
Series [11] can be described thus: Cmax in ICR mouse at 10 mg/kg, po administered as single dose or 3 mg/kg, iv by LC-MS/MS analysis. It counts as ADME, organism-based. As to conditions: in vivo.
Another series has as its system SK-CO-1. The series can be described thus: Growth inhibition of human SKCO1 cells after 96 hrs by SRB assay. As to conditions: SK-CO-1, 96 h. It counts as functional, cell-based.
Series [12] has as its system SW-620. Put plainly: Antitumor activity against human SW620 cells xenografted in CAnN.Cg-Foxnlnu/Crljbgi nude mouse assessed as tumor growth inhibition at 30 mg/kg, po dosed daily for 14 consecutive days. It counts as functional, organism-based. A general note: A xenograft is tissue or cells of one species grown in another, often human tumour cells in immunodeficient mice.

The test system of another series is LoVo. The series can be described thus: Growth inhibition of human LoVo cells after 96 hrs by SRB assay. The series is classed as functional, cell-based.
The nature of series [13]: Toxicity in CAnN.Cg-Foxnlnu/Crljbgi nude mouse xenografted with human SW620 cells assessed as weight loss at 30 mg/kg, po dosed daily for 14 consecutive days. As to conditions: in vivo. The series is classed as organism-based.

The source made the active and inactive calls. No cut-off for these calls is given here.

As a reminder, the inhibition is the percentage by which the read-out fell short of the control. Low values mean a response near the control, high ones a response far below the control. The term bioavailability denotes dose-corrected exposure relative to a reference, in per cent. A low value points to little systemic uptake. One may read the AUC(0-t) as the area under the concentration-time curve up to a stated or last time point. Read a high AUC(0-t) as high exposure. What is called IC50 is the midpoint of a concentration-inhibition curve. Broadly, the half-life is how long it takes for the measured level to halve. Usually Cmax stands for the peak of the concentration-time curve.

As for `Cc1cc(NC(=O)Nc2cc(C(C)(C)C)nn2-c2cccc(Cl)c2)ccc1-c1cnc(NC2CC2)c2nccn12`, the values for the inhibition in [1] and in series [2] were 84% and 16%, respectively.
In the same order, the values of `Cc1cc(NC(=O)Nc2cc(C(C)(C)C)nn2-c2cccc(C#N)c2)ccc1Oc1cnc(NC2CC2)c2nccn12` are 76% and 0%.
In the same order, the values of `Cc1cc(NC(=O)Nc2cc(C(C)(C)C)nn2-c2cccnc2)ccc1-c1cnc(NC2CC2)c2nccn12` are 89% and 43%.
In the same order, the values of `Cc1ccc(C(=O)Nc2cc(C(C)(C)C)nn2-c2ccccc2)cc1Oc1cnc(NC2CC2)c2nccn12` are 0% and 0%.
For the molecule `Cc1cc(NC(=O)Nc2cc(C(C)(C)C)nn2-c2ccccc2)ccc1Oc1cn2ccnc2c(NC2CC2)n1`, the inhibition stood at 30% in series [1] and 0% in [2].
Regarding `Cc1cc(NC(=O)Nc2cc(C(C)(C)C)nn2-c2cccc(C#N)c2)ccc1-c1cnc(NC2CC2)c2nccn12`, the inhibition in [1] stood at 97%; in series [2], 49%. Moreover, the remaining at 1 h in series [3] came out at 37%; in series [5] it was 33%. This molecule also returned a bioavailability in series [4] of 3.1%. Besides, in [6], the AUC(0-t) stood at 360 ng·h/mL. Moreover, the IC50 was found to be 0.041 µM on TAK1/TAB1 and 0.169 µM in the series on SW-620 [7]. Besides, the remaining at 6 h in series [8] came out at 100%; in [9] it was 88%. For the same molecule, the half-life in series [10] is 2.4 h. This molecule displayed a Cmax in series [11] of 231 ng/mL.
With `Cc1cc(C(=O)Nc2cc(C(C)(C)C)nn2-c2ccccc2)ccc1Oc1cnc(NC2CC2)c2nccn12`, the inhibition in [1] came to 3%; in series [2], 4%.
For the molecule `Cc1cc(NC(=O)Nc2cc(C(C)(C)C)nn2-c2cccc([N+](=O)[O-])c2)ccc1-c1cnc(NC2CC2)c2ncnn12`, the inhibition was determined as 90% in [1] and 26% in series [2].
The corresponding values for `Cc1cc(NC(=O)Nc2cc(C(C)(C)C)nn2-c2ccccc2)ccc1Oc1cnc(NC2CC2)c2nccn12` are 90% and 20%.
In the same order, the values of `Cc1cc(NC(=O)Nc2cc(C(C)(C)C)nn2-c2ccccc2)ccc1-c1cnc(NC2CC2)c2ncnn12` are 80% and 24%.
The corresponding values for `Cc1cc(NC(=O)Nc2cc(C(C)(C)C)nn2-c2ccc(C#N)cc2)ccc1-c1cnc(NC2CC2)c2nccn12` are 84% and 19%.
With `CCc1cc(Nc2ncc(F)c(-c3cnc4cccnn34)n2)cc(OCCN2CCC(O)CC2)c1`, the figures for the inhibition in series [1] and in series [2] were 98% and 96%, respectively. In addition, the half-maximal inhibitory concentration (IC50) amounted to 0.061 µM in the series on SK-CO-1, 0.038 µM in the series on SW-620 [7] and 0.075 µM in the series with LoVo. Also, in the series with SW-620 [12], the TGI result was “Active”. In series [13], the Activity result was “Toxic”.
As for `Cc1cc(NC(=O)Nc2cc(C(C)(C)C)nn2-c2ccc(F)cc2)ccc1-c1cnc(NC2CC2)c2nccn12`, the inhibition is 69% in series [1] and 0% in [2].
As to `Cc1cc(NC(=O)Nc2cc(C(C)(C)C)nn2-c2cccc(C#N)c2)ccc1-c1cnc(NC2CC2)c2ncnn12`, the values for the inhibition in series [1] and in [2] were 92% and 36%, respectively.
The corresponding values for `Cc1cc(NC(=O)Nc2cc(C(C)(C)C)nn2-c2cccc(Cl)c2)ccc1-c1cnc(NC2CC2)c2ncnn12` are 74% and 18%.
With `Cc1ccc(-n2nc(C(C)(C)C)cc2NC(=O)Nc2ccc(-c3cnc(NC4CC4)c4nccn34)c(C)c2)cc1`, the figures for the inhibition in series [1] and in series [2] were 91% and 7%, respectively.
The corresponding values for `Cc1cc(NC(=O)Nc2cc(C(C)(C)C)nn2-c2cccc(F)c2)ccc1-c1cnc(NC2CC2)c2nccn12` are 94% and 34%.

(Values after ChEMBL document CHEMBL4411291, “Synthesis and anti-tumor activity of imidazopyrazines as TAK1 inhibitors” (Eur J Med Chem, 2019).)
